21 compounds from ChEMBL document CHEMBL1138824, “Design and synthesis of hydroxyethylene-based peptidomimetic inhibitors of human beta-secretase” (J Med Chem, 2004) can be followed below.

One assay addresses Beta-secretase (BACE) (Homo sapiens, UniProt Q9Y5Z0+P56817). Description: Inhibition of human beta secretase in MBP-C125 assay. Format: protein assay.
For another assay, the system named is HEK293. Nature of the assay: Effective concentration evaluated in HEK293 cells. It is filed as functional, cell-based. As to conditions: Homo sapiens.

pEC50: −log10 of the molar value. Residues, ends and D or L forms follow the SMILES beside them. Some results are limits rather than exact numbers.

As usually defined, the IC50 is the midpoint of a concentration-inhibition curve. High values mean lower potency, low ones higher potency. Regarding `CCCN(CCC)C(=O)c1cccc(C(=O)N[C@@H](Cc2cc(F)cc(F)c2)[C@@H](O)C[C@@H](CC)C(=O)NCCCCC(=O)O)c1`, on Beta-secretase (BACE), the IC50 is reported as 400 nM.

In the case of `CC(C)C[C@H](NC(=O)C(O)c1cccc2ccccc12)[C@@H](O)C[C@H](C(=O)N[C@@H](C)C(=O)N[C@@H](CCC(=O)O)C(=O)N[C@@H](Cc1ccccc1)C(=O)O)C(C)C` (some centres undefined), on Beta-secretase (BACE), the half-inhibitory concentration (IC50) worked out at 7500 nM.

With `CCCN(CCC)C(=O)c1cccc(C(=O)N[C@@H](Cc2cc(F)cc(F)c2)[C@@H](O)C[C@@H](CC)C(=O)NCCCC(=O)O)c1`, the IC50 on Beta-secretase (BACE) worked out at 310 nM.

On to `CSCC[C@H](NC(=O)[C@@H](NC(=O)OC(C)(C)C)C(C)C)C(=O)N[C@@H](CC(C)C)[C@@H](O)C[C@@H](C)C(=O)N[C@H](C(=O)NCc1ccccc1)C(C)C`, for which, on Beta-secretase (BACE), the IC50 was determined as 3 nM.

On Beta-secretase (BACE), `CCCN(CCC)C(=O)c1cccc(C(=O)N[C@@H](Cc2cc(F)cc(F)c2)[C@@H](O)C[C@@H](CC)C(=O)N[C@H]2C[C@@H](OC)C[C@@H](OC)C2)c1` registered an IC50 of 6600 nM.

As for `CCCN(CCC)C(=O)c1cccc(C(=O)N[C@@H](Cc2cc(F)cc(F)c2)[C@@H](O)C[C@@H](CC(C)C)C(=O)NC[C@H]2CC[C@H](C(=O)O)CC2)c1`, the IC50 at Beta-secretase (BACE) worked out at 310 nM.

On Beta-secretase (BACE), `CCCN(CCC)C(=O)c1cccc(C(=O)N[C@@H](Cc2cc(F)cc(F)c2)[C@@H](O)C[C@@H](CC)C(=O)NCCCCCC(=O)O)c1` showed a half-inhibitory concentration (IC50) of 240 nM.

Regarding `CCCN(CCC)C(=O)c1cccc(C(=O)N[C@@H](Cc2cc(F)cc(F)c2)[C@@H](O)C[C@@H](CC)C(=O)NCCC(=O)O)c1`, the IC50 on Beta-secretase (BACE) amounted to 2800 nM.

Compound `CCCN(CCC)C(=O)c1cccc(C(=O)N[C@@H](Cc2cc(F)cc(F)c2)[C@@H](O)C[C@@H](Cc2ccccc2)C(=O)NC[C@H]2CC[C@H](C(=O)O)CC2)c1` showed a concentration for half-maximal inhibition (IC50) on Beta-secretase (BACE) of 27000 nM.

What is called pEC50 is the negative decadic logarithm of the EC50, by convention in mol/L. Higher therefore signals a small EC50. The compound `CC(C)[C@H](NC(=O)C[C@H](O)[C@H](Cc1cc(F)cc(F)c1)NC(=O)C(O)c1ccccc1-c1ccccc1)C(=O)N[C@H]1C[C@@H](C(=O)O)C[C@@H](C(=O)O)C1` (some centres undefined) came in with an IC50 against Beta-secretase (BACE) of 20 nM. In addition, the negative-log EC50 (pEC50) with HEK293 is less than 5.00.

Compound `CCCN(CCC)C(=O)c1cccc(C(=O)N[C@@H](Cc2cc(F)cc(F)c2)[C@@H](O)CCC(=O)NC[C@H]2CC[C@H](C(=O)O)CC2)c1` registered an IC50 on Beta-secretase (BACE) of 400 nM.

On Beta-secretase (BACE), `CCCN(CCC)C(=O)c1cccc(C(=O)N[C@@H](Cc2cc(F)cc(F)c2)[C@@H](O)C[C@@H](CC)C(=O)NCCCCCCCC(=O)OC)c1` showed an IC50 of 410 nM.

`CCCN(CCC)C(=O)c1cccc(C(=O)N[C@@H](Cc2cc(F)cc(F)c2)[C@@H](O)C[C@@H](CC)C(=O)NC[C@H]2CC[C@H](C(=O)O)CC2)c1` came in with a half-maximal inhibitory concentration (IC50) at Beta-secretase (BACE) of 50 nM.

`CCCN(CCC)C(=O)c1cccc(C(=O)N[C@@H](Cc2cc(F)cc(F)c2)[C@@H](O)C[C@@H](C)C(=O)NCC(C)C)c1`: the IC50 on Beta-secretase (BACE) came out at 30 nM. This compound also gave a negative-log EC50 (pEC50) with HEK293 of 5.52.

For the compound `CCCN(CCC)C(=O)c1cccc(C(=O)N[C@@H](Cc2cc(F)cc(F)c2)[C@@H](O)C[C@@H](CC)C(=O)NCc2ccccc2)c1`, the IC50 at Beta-secretase (BACE) is 1400 nM.

`CCCN(CCC)C(=O)c1cccc(C(=O)N[C@@H](Cc2cc(F)cc(F)c2)[C@@H](O)CC(=O)N[C@H](C(=O)N[C@H]2C[C@@H](C(=O)O)C[C@@H](C(=O)O)C2)C(C)C)c1`: the IC50 against Beta-secretase (BACE) was determined as 1 nM. For the same compound, the pEC50 with HEK293 is 6.00.

Compound `CCC[C@H](C[C@H](O)[C@H](Cc1cc(F)cc(F)c1)NC(=O)c1cccc(C(=O)N(CCC)CCC)c1)C(=O)NC[C@H]1CC[C@H](C(=O)O)CC1` registered an IC50 on Beta-secretase (BACE) of 45 nM.

On to `CCCN(CCC)C(=O)c1cccc(C(=O)N[C@@H](Cc2cc(F)cc(F)c2)[C@@H](O)C[C@@H](C)C(=O)NC[C@H]2CC[C@H](C(=O)O)CC2)c1`, for which the IC50 against Beta-secretase (BACE) is 26 nM.

On to `CCCN(CCC)C(=O)c1cccc(C(=O)N[C@@H](Cc2cc(F)cc(F)c2)[C@@H](O)C[C@@H](CC)C(=O)NCCCCCCCC(=O)O)c1`, for which the IC50 against Beta-secretase (BACE) is listed as 200 nM.

`CC(C)C[C@H](NC(=O)C(O)c1cccc2ccccc12)[C@@H](O)CC(=O)N[C@H](C(=O)N[C@@H](C)C(=O)N[C@@H](CCC(=O)O)C(=O)N[C@@H](Cc1ccccc1)C(=O)O)C(C)C` (some centres undefined) (HELM PEPTIDE1{[O=C(C(O)c1cccc2ccccc12)[*:2]].[CC(C)C[C@H](N[*:1])[C@@H](O)CC(=O)[*:2]].V.A.E.F}$$$$V2.0) had an IC50 at Beta-secretase (BACE) of 4000 nM.

Regarding `CSCC[C@H](NC(=O)[C@@H](NC(C)=O)C(C)C)C(=O)N[C@@H](CC(C)C)[C@@H](O)C[C@H](C(=O)N[C@@H](C)C(=O)N[C@@H](CCC(=O)O)C(=O)N[C@@H](Cc1ccccc1)C(=O)O)C(C)C` (HELM PEPTIDE1{[ac].V.M.[CC(C)C[C@H](N[*:1])[C@@H](O)C[C@H](C(=O)[*:2])C(C)C].A.E.F}$$$$V2.0), the IC50 on Beta-secretase (BACE) is recorded as 30 nM.
